Patent publication US20070167499A1, “Biaryl linked hydroxamates: preparation and pharmaceutical applications” (A*BIO Pte Ltd., priority 2003, published 2007)

Test system: Ramos Burkitt-lymphoma cells
Experiment: Apoptosis assay (Annexin V / PI flow cytometry)
Type: cell-based, human
Details: 48 h after treatment with 10 μM
Description: In various therapies such as for proliferative disorders like cancer, the selective induction of apoptosis in proliferating cells such as tumor cells is one of the desirable approaches, and can be mediated by treatment with various anti-proliferative compounds [Blagosklonny MV, Oncogene, 23(16): 2967 (2004); Kaufmann and Eamshaw, Exp Cell Res. 256(1): 42-9 (2000)]. Programmed cell death or apoptosis is the cellular response to stress factors such as DNA damage introduced during conventional anti-cancer treatment. The concerted sequence of events during apoptosis, clearly differentiate this pathway from a non-coordinated form of cell death called necrosis. During the course of apoptosis, characteristic phenotypical cellular changes occur, which include the condensation of chromatin, the shrinkage of cells and finally the fragmentation of chromosomal DNA. One of the very early change caused by apoptotic events occurs in the phospholipids bilayer of the plasma membrane. The phospholipid phosphatidylserine is translocated from the inner to the outer side of the plasma-membrane and, as a result, is exposed to the extracellular space. One way of detecting early apoptotic cells is to determine the amount of phosphatidyl-serine at the extracellular side of the plasma-membrane which is accomplished by the standard flow cytometric method of Annexin V staining. The phospholipids recognizing protein Annexin V binds with high affinity to these inverted and exposed phosphatidyl-serines.
The ability of the compounds in this invention to induce apoptosis was tested in Ramos Burkitt-lymphoma cells. This cell line is one of the gold standard cell lines commonly used as a tissue culture model for B cell lymphoma. Representative compounds as indicated below were added to 80,000 cells per 500 μl growth medium (RPMI1640 medium supplemented with 2 mM L-Glutamine, 10% heat-inactivated FBS, 1 mM Na-Pyruvate and 10 mM HEPES) in 24 well format at various concentrations. Two days after the start of treatment, cells were collected and subjected to the Annexin V staining protocol following the instructions of the manufacturer (BD Biosciences). By using propidium iodide (PI) as a viability control, cells that stain positive for Annexin V, but negative for PI, are undergoing apoptosis.

O=C(Cc1ccc(-c2csc(NC(=O)Cc3ccccc3)n2)s1)NO [Example 1, N-Hydroxy-2-[5-(2-phenylacetylamino-thiazol-4-yl)-thiophen-2-yl]-acetamide]
% cells in late apoptosis (Ramos): 76%
